Experimental data reported in patent US8338599B2, “Compounds having a potentiating effect on the activity of ethionamide and uses thereof” (priority 2006, dated 2012).
“And” between values parts separate entries of the source, which are not always exact repeats. Equal values may be shown once.

Legend:
[1] = system: M. tuberculosis H37Rv; test: Ethionamide-potentiating effect, RIA detection method on Bactec 460 in 12B medium; format: cell-based; details: with 25 μM of compound
[2] = target: T1, EthR protein (Mycobacterium tuberculosis, UniProt P9WMC1); test: Inhibition of interaction of EthR with its target DNA sequence (BIAcore); format: binding, M. tuberculosis H37Rv
Experimental: a) Measurement of the Activity of the Compounds on the Inhibition of Interaction of EthR with its Target DNA Sequence
The in vitro measurements of inhibition of binding of the EthR protein to its target DNA sequence were performed on a machine of BIAcore®2000 type (AB, Uppsala, Sweden).
The chips used are CM5 chips sold by the company GE Healthcare. Both the channels of a chip were activated with a solution containing 200 mM of EDC(N-ethyl-N′-(3-[…])carbodiimide) and 50 mM of NHS (N-hydroxysuccinimide). Next, streptavidin (500 ng/μl in a solution containing 10 mM of sodium acetate (pH 3.5) was injected over 12 minutes at a flow rate of 10 μl/minute. The 106-base-pair biotinylated DNA fragment corresponding to the ethA-R intergene region was deposited on one of the two channels of the chip at a rate of 200 ng/ml in order to obtain stable binding of streptavidin corresponding to 50 RU (resonance units). This DNA fragment was obtained by PCR using the chromosomal DNA of M. tuberculosis H37Rv as matrix and O-270: 5′-[…]-3′ (SEQ ID: No. 1) and O-271: 5′-biotin-[…]-3′ (SEQ ID: No. 2). The second channel was functionalized with a 113-base-pair biotinylated DNA fragment (fragment +14 to +127 of the bla gene of E. coli PCR-amplified using the following oligonucleotides: O-343: 5′-[…]-3′ (SEQ ID: No. 3) and O-344: 5′-biotin-[…]-3′ (SEQ ID: No. 4).
Measurement of the binding of the EthR protein to the immobilized DNA was performed at 37° C. in a reference buffer containing 10 mM of Tris-HCl (pH=7.5), 200 mM of NaCl, 0.1 mM of EDTA, 1 mM of DTT and 1% of DMSO at a flow rate of 20 μl/minute. The specific interaction (SI) of EthR with the 106-base-pair double-stranded DNA sequence, expressed in resonance units, corresponds to the difference in signal observed between the two channels.
For each inhibition measurement, the compounds of the invention are dissolved in the reference buffer at a concentration of 3 μM. The compounds of the invention are then incubated in the presence of the protein (540 nM) at 37° C. for 5 minutes, and each solution is then injected onto the two channels of the chip for 3 minutes at a flow rate of 20 μl/minute. The inhibition values are calculated at the end of the injection according to the following equation: […]
in which SIEthR corresponds to the value measured without ligand and SIEthR+ligand corresponds to the value measured in the presence of to ligand.

[3] = target: T1, EthR protein; test: In vitro measurement of the IC50 (EthR/DNA binding, BIAcore); set-up: species or system M. tuberculosis H37Rv
Experimental: b) In Vitro Measurement of the IC50 of the Compounds of the Invention.
The in vitro measurement of this datum was performed according to the same principle as for the measurement of inhibition of the EthR/DNA binding using the BIAcore technique.
The specific interaction between EthR and the specific 106-bp DNA fragment was measured on a range of six concentrations of the compounds of the invention, this range extending from 0.11 μM to 27 μM. The IC50 values are then extrapolated from the sigmoid curves obtained.

[4] = system: M. bovis BCG; format: cell-based, M. bovis BCG 1173P2; details: from MIC of ETH alone (6 μM) and MIC of ETH with 25 μM compound
[5] = system: Mycobacterium tuberculosis bacilli (strain H37RV); test: Agar gel well test of ETH potentiation in Petri dishes; format: cell-based

T1 sequence (P9WMC1 whole entry, looked up): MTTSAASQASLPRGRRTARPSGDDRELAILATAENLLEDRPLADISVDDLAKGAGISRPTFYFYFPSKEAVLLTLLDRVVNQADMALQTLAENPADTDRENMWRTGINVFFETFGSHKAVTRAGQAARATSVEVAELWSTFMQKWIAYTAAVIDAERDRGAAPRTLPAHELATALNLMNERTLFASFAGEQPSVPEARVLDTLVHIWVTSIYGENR

In the case of `[N-]=[N+]=NCC(=O)N1CCC(c2nc(-c3cccs3)no2)CC1` [Compound I-1, 2-azido-1-[4-(3-thiophen-2-yl[1,2,4]oxadiazol-5-yl)piperid-1-yl]ethanone], the “ETH concentration giving the same growth-inhibiting effect” value [1] is reported as 0.1 μg/ml and 0.6 μM, the inhibition at 3 µM ([2]; compound 3 μM, EthR 540 nM, 37° C.) is reported as 33% and the inhibition at 1 µM ([2]; footnote c: DNA 20 RU, EthR 200 nM, compound 1 μM) is reported as 45%. It also gave an IC50 [3] of 1540 nM and a Potentiation % [4] of 2500%.

`CC(C)(C)OC(=O)N1CCC(c2nc(-c3cccs3)no2)CC1` [Compound I-3, t-butyl ester of 4-(3-thiophen-2-yl-1,2,4-oxadiazol-5-yl)piperidine-1-carboxylic acid] was tested, and the “inhibition of mycobacterial growth around the well” value ([5]; 20 nmol of compound alone (hole A2), three weeks 37° C.) was “does not show any bacterial toxicity”, the “inhibition of mycobacterial growth around the well” value ([5]; 2 μg or 4 μg of ETH + 20 nmol of compound (holes C1 and C2)) was “strongly inhibit the mycobacterial growth” and the “factor of reduction of the effective dose of ETH” value ([5]; combination with ETH, test behind the figure not stated) was “about 10 fold”.
